Conditions: Liquid, Ebulliometric method (Recirculating still)

O=C(O)C(Cl)Cl [2,2-dichloroacetic acid]
Conditions	vapor or sublimation pressure [kPa]
384.3 K	5
388.3 K	6
391.8 K	7
394.8 K	8
397.6 K	9
400.2 K	10
402.4 K	11
404.3 K	12
406.4 K	13
408.3 K	14
410.1 K	15
414.1 K	17.5
417.5 K	20
423.5 K	25
428.6 K	30
437 K	40

O=C(O)CCl [chloroethanoic acid]
Conditions	vapor or sublimation pressure [kPa]
380.7 K	5
384.7 K	6
389.5 K	7.5
391 K	8
393.8 K	9
396.3 K	10
398.7 K	11
400.7 K	12
402.7 K	13
404.6 K	14
406.3 K	15
410.2 K	17.5
413.7 K	20
419.5 K	25
424.5 K	30
432.6 K	40
